Results: patent US6025387A, “Gastroprotective flavone/flavanone compounds with therapeutic effect on inflammatory bowel disease” (Dong a Pharmaceutical Co., Ltd., priority 1996, dated 2000)
Values after ≈ are worked out from the molar mass of the structure shown.

Experiments:
[1] = test system: gastric mucosal damage induced by ethanolic HCl; experiment: Gastritis model induced with ethanolic-HCl; format: in vivo, SD male rat; conditions: po, 1 h, rat; for inhibition in vivo at 0.3 mg/kg: 0.3 mg/kg p.o.; for inhibition in vivo at 1 mg/kg: 1 mg/kg p.o.; for inhibition in vivo at 3 mg/kg: 3 mg/kg p.o.
Protocol: Effect on the Gastritis Model Induced with Ethanolic-HCl.
SD male rat(250-350 g) was fasted for 24 hours. The compound was orally administered in suspension of 5% HPMC, and after 1 hour 1.5 mL of 150 mM HCl-80% ethanol was orally administered. After 1 hour the rat was sacrifieced and the stomach was extracted and the ulcer index was measured. The ulcer index was shown by the area of hemorrhage lesion(Mizui, T, et al., Jpn. J. Pharmacol. 1983, 33: 939).

[2] = test system: neutrophils; experiment: Luminol-dependent chemiluminescence of neutrophils induced by FMLP; format: cell-based; conditions: 1 μM FMLP, 0.07 mM luminol; for IC50: Neutrophil, read-out: IC50, inhibition of chemiluminescence generated by neutrophil activation
Protocol: Measurement of luminol-dependent chemiluminescencei iof neutrophil induced by FMLP.
20 mL of 12% sodium caseinate-0.9% saline was administered intraperitoneally (Newsby, A. C., Biochem. J., 1980, 186: 907,. After 20 hours, the intraperitoneal exudate was extracted under ether anesthesia. The exudate was centrifuged, and erythrocytes were removed by hypotonic lysis, and then neutrophil was washed. Neutrophil was ascertained by Wright's dyeing method, and viability was measured by Trypan blue exclusion test. Chemiluminescence was measured by Topcount (Packard Co.). The suspension of 1.5×10^6 of granulocytes, 1 μM of FMLP, 0.07 mM of luminol and the compound in HBSS was used (Dahlgren, C., et al., Infect. Immun., 1985 47: 326-328).
**IC50 (μg/mL): Concentration of the compound at inhibiting
chemiluminescence generated by neutrophil activation to 50%

[3] = test system: cyclooxygenase; experiment: Cyclooxygenase activity in HUVEC (PGF1 α synthesis); format: cell-based
Protocol: Measurment of Cyclooxygenase Actvity
After addition of the compound to cultured HUVEC, the HUVEC was incubated at 37° C., for 30 minutes, then arachidonic acid (final concentration: 30 .rho.M) was added, and the HUVEC was additionally incubated at 37° C. for 15 minutes. The culture medium was taken, and the activity of cyclooxygenase for 6-Keto-PGF1 α or PGE2 was measured by radioimmunoassay (Mitchell, J. A., et al., Pro. Natl. Acad. Sci. USA 1994, 90: 11693-11697).
**SC200 (ug/mL) : Concentration at increasing generation of […]

[4] = test system: chronic gastritis induced with acetic acid; experiment: Model of chronic gastritis induced with acetic acid; format: in vivo, SD male rat; conditions: once a day for 21 days, rat
Protocol: Experiment on the Model of Chronic Gastritis Induced with Acetic Acid
From the next day of the surgical operation, the compound was orally administered once a day for 21 days. After 21 days, the stomach was extracted under ether anesthesis, dipped in 1% formalin solution and the area of gastric lesion was measured. […] An pathological tissue autopsy was carried out for the prepared specimen.

[5] = test system: gastric mucus secretion; experiment: Measurement of gastric mucus; format: in vivo, SD male rat; conditions: oral, rat
Protocol: Measurement of Gastric Mucus
The compound was orally administered into SD male rat (200~250 g). After 1 hour the stomach was extracted. The extracted stomach was immediately washed with 10 mL of cold 0.25M sucrose solution. The gastric mucosa was dyed with 0.1% alcian blue solution for 2 hours. After dyeing, the gastric mucosa was washed with 0.25M sucrose solution twice for 15 minutes and for 45 minutes. The dyed gastric mucosa was treated with 10 mL of 30% dioctyl sodium sulfosuccinate solution for 2 hours to extract dyed mucus completely and optical density of aqueous phase was measured spectrophotometrically at 655 nm. The amount of mucus in the gastric mucosa was shown as the amount of alcian blue after calibration (Kitagawa, H., et al., Drug Res. 1986, 36: 1240-1244).

[6] = test system: ulcer; conditions: in vivo; cited from earlier work
[7] = test system: TNBS-induced colitis; experiment: TNBS-induced colitis model, oral administration; format: in vivo, male SD rats; conditions: for lesion scores: once a day for 13 days, rat; for adhesion degree / dilation and extention degree: score 0-3, rat
Protocol: Experiment on the Model of Inflammatory Bowl Diseases Induced with TNBS
7 week-aged male SD rats were fasted for a day, and the rats were put under anesthesia and canula (diameter 3 mm) was inserted into the anus to the depth of 8 cm. 25 mg/mL of TNBS (Trinitrobenzene sulfonic acid) dissolved in 50% ethanol solution was injected to each rat and the rats were positioned at feature of tail up for 1 minute. The solution flowing out was removed and the rats were once washed with 1.5 mL of saline solution. After colitis was induced, the compound was administered orally or intracolonically once a day for 13 days. For control, mesalazine (5-amino salicylic acid) was used for oral administration and prednisolone was used for rectal administration. At 14th day of experiment, each group of the rats were put under ether anesthesis, the colon was extracted and the degree of adhesion and extension of the large intestine were measured and their lesion scores were recorded. After 1% formalin solution was injected to the cavity of the extracted colon to inflate, the both ends of it were bonded with each other and it was all-fixed in 1% formalin solution for 2 hours. The all-fixed colon was cut to lengthy direction and washed to remove surrounding fat tissues and connective fissaes. After cecum was removed, the weight of the colon and the rectum was measured, and the area of ulcer lesion, and microscopic lesion were measured to mark scores according to the criterion. And they were fixed in 10% neutral formalin solution, and the tissue examination of lesion site was performed by general method to mark scores according to the criterion.
Clinical symptoms: Daily, we observed clinical symptoms and survival of the animals. And we measured the weight of the animals at the beginning day, third and eighth day of the experiment.
(0: non-adhesion, 1: adhesion exists but easily taken off by gloved hand, 2: more severe adhesion than 1 exists but easily taken off by scissors, 3: very severe adhesion exists, so it is difficult to be taken off by scissors because of possibility of its perforation.)
Degree of thickening and extension of the large intestine: We marked scores of the degree of thickness and extension of the large intestine according to the criterion, following the method of Kim et al., and compared with the average value of each group.
(0: lesion site non-existing, 1: a few degree of lesion, 2: intermediate degree of lesion, 3: severe degree of lesion)
We scored the lesion examined with the naked eye and compared the average value of each group. The standards of lesion scores as criterion of the damage of the colon by Wallace's method is as followings.
(0: normal, non-damaged, 1: congestion without ulcer 2: congestion and thickening of intestinal wall without ulcer, 3: an ulcer lesion without thickening of intestinal wall, 4: more than two ulcerous/inflammatory lesion, 5: more than two ulcerous/inflammatory lesion or the length of ulcerous/inflammatory lesion is more than 1 cm, 6-10: when the length of lesion is over 2 cm, one point increases everytime 1 cm of the length of ulcerous/inflammatory increases, for example, when the ulcer length is 3 cm, the point is 7.)
Microscopic evaluation: We trimmed the colon giving 3 cm interval from the rectum to the cecum, including the site of lesion examined with the naked eye, to make at least 4 specimens per an individual. […] When the lesion can not be examined with the naked eye, we trimmed the other specimen which has the lesion, with 3 cm interval.

Structure (SMILES) | inhibition in vivo at 0.3 mg/kg [1] [%] | inhibition in vivo at 1 mg/kg [1] [%] | inhibition in vivo at 3 mg/kg [1] [%] | anti-ulcerative action [6] | other results
COc1ccc(-c2cc(=O)c3c(O)c(OC)ccc3o2)cc1OC [5-hydroxy-3',4',6-trimethoxy flavone] | 38 | 42 | 64 |  | 
CNC(=O)COc1cc(OC)c2c(=O)cc(-c3ccc(OC)c(OC)c3)oc2c1 [7-(N-methylamidomethyloxy)-3',4',5-trimethoxy flavone] | 43 | 47 | 45 |  | 
COc1ccc(-c2cc(=O)c3cc(OC)c(OCC(=O)O)cc3o2)cc1OC [7-carboxymethyloxy-3',4',6-trimethoxy flavone] | 30 | 31 | 39 |  | 
COc1ccc(C2CC(=O)c3c(cc(OCC(=O)O)c(OC)c3O)O2)cc1OC (centres unmarked) [7-carboxymethyloxy-5-hydroxy-3',4',6-trimethoxy flavanone] | 0 | 18 | 50 |  | IC50 [2]: 1.79 µg/mL (≈ 4.43 µM)
COc1ccc(-c2cc(=O)c3c(O)c(OC)c(OCC(=O)O)cc3o2)cc1OC [7-carboxymethyloxy-5-hydroxy-3',4',6-trimethoxy flavone] | 16 | 77 | 56 |  | IC50 [2]: 1.73 µg/mL (≈ 4.3 µM); SC200, concentration increasing generation of PGF1α to 200% [3]: 18.41 µg/mL
COc1ccc(C2CC(=O)c3c(OC)cc(O)cc3O2)cc1OC (centres unmarked) [7-hydroxy-3',4'5-trimethoxy flavanone, 7-hydroxy-3',4',5-trimethoxy flavanone] | 30 | 57 | 76 |  | 
COc1ccc(-c2cc(=O)c3c(OC)c(OC)c(OCCO)cc3o2)cc1OC [7-hydroxyethyloxy-3',4',5,6-tetramethoxy flavone] | 43 | 50 | 51 |  | IC50 [2]: 0.13 µg/mL (≈ 0.323 µM)
COc1ccc(-c2cc(=O)c3c(OC)cc(OCCO)cc3o2)cc1OC [7-hydroxyethyloxy-3',4',5-trimethoxy flavone] | 0 | 34 | 47 |  | 
COC(=O)COc1cc(OC)c2c(=O)cc(-c3ccc(OC)c(OC)c3)oc2c1 [7-methoxycarbomethyloxy-3',4',5-trimethoxy flavone] |  |  |  |  | IC50 [2]: 0.95 µg/mL (≈ 2.37 µM)
O=C(NC(Cc1cc(=O)[nH]c2ccccc12)C(=O)O)c1ccc(Cl)cc1 (centres unmarked) [Rebamipide, 2(4-chlorobenzoylamino)-3-(2-(LH)-quinolinone-4-yl)propanonic acid, reference compound] |  |  | 22 |  | IC50, inhibition of chemiluminescence generated by neutrophil activation [2]: 92 µg/mL; IC50 [2]: 92.1 µg/mL (≈ 248 µM); inhibiting% (gastric lesion) ([4]; 10 mg/kg p.o.): 41%; inhibiting% (gastric lesion) ([4]; 100 mg/kg p.o.): 7%; gastric mucus secretion, % Control ([5]; 10 mg/kg): 128 % Control; gastric mucus secretion, % Control ([5]; 100 mg/kg): 136 % Control; inhibition in vivo at 10 mg/kg ([1]; 10 mg/kg p.o.): 30%; inhibition in vivo at 30 mg/kg ([1]; 30 mg/kg p.o.): 47%
COc1ccc(-c2cc(=O)c3c(O)cc(OC)cc3o2)cc1 [apigenin-7,4'-dimethylether] |  |  |  | anti-ulcerative action | 
COc1ccc([C@@H]2CC(=O)c3c(O)cc(O[C@@H]4O[C@H](CO[C@@H]5O[C@@H](C)[C@H](O)[C@@H](O)[C@H]5O)[C@@H](O)[C@H](O)[C@H]4O)cc3O2)cc1O [hesperidine] |  |  |  | anti-ulcerative action | 
O=c1cc(-c2ccc(O)c(O)c2)oc2c(O[C@@H]3O[C@H](CO)[C@@H](O)[C@H](O)[C@H]3O)c(O)cc(O)c12 [hypolaetin-8-glucoside] |  |  |  | anti-ulcerative action | 
O=c1c(O)c(-c2ccc(O)cc2)oc2cc(O)cc(O)c12 [kampferol] |  |  |  | anti-ulcerative action | 
Nc1ccc(O)c(C(=O)O)c1 [mesalazine, 5-amino salicylic acid, reference compound] |  |  |  |  | lesion scores ([7]; 25 mg/kg p.o.): 2.8; adhesion degree ([7]; 25 mg/kg p.o.): 1.4; dilation and extention degree ([7]; 25 mg/kg p.o.): 0.9; lesion scores ([7]; 50 mg/kg p.o.): 2.2; adhesion degree ([7]; 50 mg/kg p.o.): 1.0; dilation and extention degree ([7]; 50 mg/kg p.o.): 1.1
O=C1C[C@@H](c2ccc(O)cc2)Oc2cc(O)cc(O)c21 [naringenin] |  |  |  | anti-ulcerative action | 
O=c1c(O)c(-c2ccc(O)c(O)c2)oc2cc(O)cc(O)c12 [quercetin] |  |  |  | anti-ulcerative action | 
